In US20230346827A1 (priority 2020, published 2023):

How the values were obtained:
[1] = in vivo; cited from earlier work
[2] = target: T1, oligomeric amyloid-β / PrP^c interaction (Homo sapiens, UniProt P04156); assay type: binding
[3] = target: T1, oligomeric amyloid-β / PrP^c interaction; conditions: cited from earlier work
[4] = tested on: mouse model of muscle atrophy; conditions: after 2 weeks of treatment; cited from earlier work
[5] = tested on: human purified monocytes; experiment: Stimulated IL-6 release from human purified monocytes (ELISA); assay type: cell-based; conditions: 24 h, LMW-DS 60-600 µg/ml, heparin 2.0-20 µg/ml, dexamethasone 3.0 µM
Protocol: Peripheral blood mononuclear cells (PBMC) were isolated from healthy donors through Ficoll-Paque PLUS (GE Healthcare; 11778538) density centrifugation. Monocytes were purified using the EasySep™ human monocyte enrichment kit (StemCell) that purifies monocytes ‘untouched’ to maintain their phenotype.
Monocytes were cultured in the absence (unstimulated PBS vehicle controls) or presence of stimulation (LPS or peptidoglycan) in the absence (vehicle) or presence of LMW-DS (Tikomed AB, Viken, Sweden, WO 2016/076780; three concentrations; top concentration 600 µg/ml, 200 µg/ml and 60 µg/ml), heparin (2.0, 6.0 or 20 µg/ml; equivalent to 0.406, 1.218 and 4.06 units/ml; Sigma Aldrich) or dexamethasone (3.0 µM; Sigma Aldrich) for 24 hours at 37° C., 5% CO2. Following centrifugation, cell culture supernatants were removed and stored at -20° C. awaiting analysis for IL-6 by ELISA. Levels of IL-6 were quantified in the supernatant by ELISA (R&D systems) according to manufacturer’s instructions.

## certolizumab
[1]
  half-life: around 14 days

## adalimumab
[1]
  half-life: around 14 days

## dextran
[2]
  competition for the protein-protein interaction between oligomeric amyloid-β and PrP^c: failed to compete appreciably

## dextran sulphate sodium salt [DSSS]
[2]
  Competable binding (%): 101±2%
  Hill coefficient: 1.51±0.06
  IC50: 0.62 ± 0.07 µg/mL
[3]
  effective concentrations to compete with the amyloid-β / PrP^c interaction: low µg/ml range

## recombinant HGF: recombinant hepatocyte growth factor
[4]
  increase in muscle mass: 18%

## infliximab
[1]
  half-life: around 14 days

## heparin [reference compound]
[5]; LPS 0.01 ng/ml
  LPS-stimulated IL-6 release: concentration dependent statistically significant enhancement
[5]; peptidoglycan 30 ng/ml
  peptidoglycan-stimulated IL-6 release: did not reach statistical significance
